Source: US7589123B2, “Chemical compounds” (Phytopharm PLC, priority 2006, dated 2009)

Key:
TRPV1 receptor = TRPV1 receptor (Rattus norvegicus, UniProt O35433); test: TRPV1 modulation in DRG neurones: CGRP release in absence and presence of capsaicin (Assay 2); format: cell-based; parameters: The culture used for this experiment contained sensory neurones, Schwann cells and fibroblasts; endogenous in cells; host or cells: primary rat DRG sensory neurone culture (with Schwann cells and fibroblasts); details: 20 min; for inhibition at 3 µM: 3 μM with capsaicin 1 μM; for inhibition at 3 µM / inhibition at 30 µM: −ve: inhibition, +ve: potentiation of capsaicin response, read-out: Effect of test compounds on capsaicin (1 μM)-induced CGRP release (%); for inhibition at 30 µM: 30 μM with capsaicin 1 μM; for Emax at 3 µM: test compound alone 3 μM; for Emax at 3 µM / Emax at 30 µM: rat DRG sensory neurones, read-out: CGRP release (% of capsaicin (1 μM) response); for Emax at 30 µM: test compound alone 30 μM
Sequence of TRPV1 receptor (O35433 whole entry): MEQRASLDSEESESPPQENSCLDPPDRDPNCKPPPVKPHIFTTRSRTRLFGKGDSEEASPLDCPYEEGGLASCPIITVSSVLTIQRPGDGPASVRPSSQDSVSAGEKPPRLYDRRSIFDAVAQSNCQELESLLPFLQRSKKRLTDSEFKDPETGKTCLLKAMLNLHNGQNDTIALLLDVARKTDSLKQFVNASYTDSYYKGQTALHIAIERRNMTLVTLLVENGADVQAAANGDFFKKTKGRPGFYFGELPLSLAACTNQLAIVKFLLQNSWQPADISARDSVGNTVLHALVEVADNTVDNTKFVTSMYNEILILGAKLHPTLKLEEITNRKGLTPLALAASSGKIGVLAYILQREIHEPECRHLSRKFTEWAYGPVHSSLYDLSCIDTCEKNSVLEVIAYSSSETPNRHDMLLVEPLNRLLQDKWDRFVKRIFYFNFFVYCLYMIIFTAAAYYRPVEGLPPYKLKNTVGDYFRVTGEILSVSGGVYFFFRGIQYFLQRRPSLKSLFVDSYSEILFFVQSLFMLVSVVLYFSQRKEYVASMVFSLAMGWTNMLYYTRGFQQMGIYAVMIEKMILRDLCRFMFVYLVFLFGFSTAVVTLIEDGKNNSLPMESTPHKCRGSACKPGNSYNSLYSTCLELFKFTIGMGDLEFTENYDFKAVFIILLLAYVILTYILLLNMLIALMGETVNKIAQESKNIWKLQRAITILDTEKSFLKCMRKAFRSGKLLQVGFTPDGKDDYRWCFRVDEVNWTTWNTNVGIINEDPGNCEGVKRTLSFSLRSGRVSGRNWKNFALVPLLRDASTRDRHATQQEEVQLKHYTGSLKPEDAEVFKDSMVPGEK

WI-38 cells = test: Viability of WI-38 cells, Alamar Blue (Assay 5); format: cell-based, human
Outline: (§1)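 WI-38 fibroblasts stimulated overnight at 37 °C with 1 nM IL-1α plus test compound at 3 and 30 μM in MEM with 10% FBS, pH 7.3; released PGE2 in supernatant quantified by radioimmunoassay as percent inhibition. Viability then checked by Alamar Blue, 4 h at 37 °C, fluorescence ex 530/em 590 nm.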

[1] = system: histamine-induced contractions in guinea pig ileum; test: Inhibition of histamine-induced contractions in guinea pig ileum (Assay 3); details: Cavia porcellus, histamine 1.7 μM, read-out: Inhibition of histamine-induced contraction (%)
Outline: (§2)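 Isolated male guinea pig ileum strips in Krebs at 32° C, pH 7.4, 1 g resting tension, isotonic recording. Contraction to test compound (3 and 30 μM) alone recorded, then inhibition of responses to histamine 1.7 μM or 5-HT 2.6 μM (~EC60-70, 5 min) measured in its continued presence.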

[2] = system: α-smooth muscle actin (α-SMA) mRNA; test: Anti-remodelling activity in human lung fibroblasts (HFL1): TGFβ-induced α-SMA mRNA (Assay 4); format: cell-based; details: Homo sapiens, HFL1 cells, TGFβ 10 ng/ml, 24 h, read-out: Inhibition of α-SMA mRNA synthesis (%)
Outline: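 Real-time RT-PCR of α-SMA mRNA, GAPDH as reference, measured after 24 h exposure of low-serum-primed HFL1 cells to 10 ng/ml TGFβ with test compounds (3 and 30 μM) in 10% FBS medium. Readout is inhibition of TGFβ-driven α-SMA mRNA overexpression.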

[3] = system: 5-HT-induced contractions in guinea pig ileum; test: Inhibition of 5-HT-induced contractions in guinea pig ileum (Assay 3); details: Cavia porcellus, 5-HT 2.6 μM, read-out: Inhibition of 5-HT-induced contraction (%)
Outline: as §2

5-lipoxygenase = biological target: T1, 5-lipoxygenase (Homo sapiens, UniProt P09917); test: 5-lipoxygenase activity (LTB4) in human peripheral blood mononuclear leukocytes (Assay 6); format: cell-based; details: human PBMLs, A23187 30 μM, read-out: Inhibition of 5-LO (%)
T1 construct: endogenous in cells; host or cells: human peripheral blood mononuclear leukocytes (PBMLs)
T1 sequence (P09917 1-674): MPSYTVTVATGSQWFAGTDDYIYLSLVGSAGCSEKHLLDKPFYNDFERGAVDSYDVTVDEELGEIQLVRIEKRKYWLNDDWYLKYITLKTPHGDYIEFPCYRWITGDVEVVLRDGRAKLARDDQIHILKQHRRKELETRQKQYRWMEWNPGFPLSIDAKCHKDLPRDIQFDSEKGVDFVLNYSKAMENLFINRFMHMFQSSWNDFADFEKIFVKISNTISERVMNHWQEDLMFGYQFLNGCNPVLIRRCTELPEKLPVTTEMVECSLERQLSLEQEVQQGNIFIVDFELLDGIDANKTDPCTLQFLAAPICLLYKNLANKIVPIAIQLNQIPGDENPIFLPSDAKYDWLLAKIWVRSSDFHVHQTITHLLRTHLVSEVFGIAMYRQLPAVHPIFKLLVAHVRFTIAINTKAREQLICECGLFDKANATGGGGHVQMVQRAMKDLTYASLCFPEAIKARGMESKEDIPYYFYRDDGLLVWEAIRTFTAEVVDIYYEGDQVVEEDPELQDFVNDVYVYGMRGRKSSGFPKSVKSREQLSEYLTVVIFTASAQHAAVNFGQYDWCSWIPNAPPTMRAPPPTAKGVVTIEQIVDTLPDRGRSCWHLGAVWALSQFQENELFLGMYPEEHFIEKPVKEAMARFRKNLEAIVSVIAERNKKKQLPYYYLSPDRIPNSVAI
Outline: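 Human PBMLs (5×10^6 cells, Ficoll-isolated) stimulated with 30 μM A23187 plus compound at 3 or 30 μM or 0.1% DMSO in HBSS pH 7.4, 37° C., 15 min. After NaOH neutralisation and centrifugation, supernatant LTB4 measured by enzyme immunoassay.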

[4] = system: IL-1α-induced PGE2 release; test: IL-1α-induced PGE2 release in human diploid lung fibroblasts (WI-38) (Assay 5); format: cell-based; details: Homo sapiens, WI-38 cells, IL-1α 1 nM, overnight
Outline: as §1

| Structure (SMILES) | inhibition at 3 µM (TRPV1 receptor) [%] | inhibition at 30 µM (TRPV1 receptor) [%] | Emax at 3 µM (TRPV1 receptor) [%] | Emax at 30 µM (TRPV1 receptor) [%] | Decrease in cell viability (%) (WI-38 cells; 3 μM) | Decrease in cell viability (%) (WI-38 cells; 30 μM) | inhibition at 3 µM [1] [%] | inhibition at 30 µM [1] [%] | inhibition at 3 µM [2] [%] | inhibition at 30 µM [2] [%] | inhibition at 3 µM [3] [%] | inhibition at 30 µM [3] [%] | inhibition at 3 µM (5-lipoxygenase) [%] | inhibition at 30 µM (5-lipoxygenase) [%] | inhibition at 3 µM [4] [%] | inhibition at 30 µM [4] [%] |
| --- | --- | --- | --- | --- | --- | --- | --- | --- | --- | --- | --- | --- | --- | --- | --- | --- |
| CCC(C(=O)CCc1ccc(O)c(OC)c1)C(=O)c1ccccc1 (stereo not shown) [Compound 12, 2-Ethyl-5-(4-hydroxy-3-methoxyphenyl)-1-phenyl-pentane-1,3-dione] | 13 | 14 | 19 | 73 | 6 | −5 | 3 | 41 | 9 | 34 | 3 | 47 | 41 | 94 | 69 | 101 |
| COc1cc(CCC(=O)C(C)C(=O)C(C)(C)C)ccc1O (stereo not shown) [Compound 4, 1-(4-Hydroxy-3-methoxyphenyl)-4,6,6-trimethyl-heptane-3,5-dione] | -58 | -24 | 36 | 63 | −3 | 10 | 7 | 14 | -3 | 17 | 0 | 10 | 15 | 73 | 49 | 96 |
| COc1cc(CCC(=O)C(C)(C)C(=O)c2ccc(C)cc2)ccc1O [Compound 81, 5-(4-Hydroxy-3-methoxyphenyl)-2,2-dimethyl-1-p-tolylpentane-1,3-dione] | 25 | -22 | 45 | 104 | 3 | −7 | 22 | 94 | -2 | 55 | 21 | 95 | 64 | 97 | 62 | 101 |
| COc1cc(CCC(=O)CC(=O)Cc2ccccc2)ccc1O [Compound 28, 6-(4-Hydroxy-3-methoxyphenyl)-1-phenyl-hexane-2,4-dione] | 51 | -29 | 29 | 107 | 1 | 6 | 7 | 18 | 12 | 47 | 6 | 85 | 35 | 98 | 87 | 99 |
| COc1cc(CCC(=O)CC(=O)c2ccc(C)cc2)ccc1O [Compound 80, 5-(4-Hydroxy-3-methoxyphenyl)-1-p-tolylpentane-1,3-dione] | 44 | -24 | 68 | 118 | 2 | 1 | 2 | 62 | 4 | 29 | 14 | 68 | 61 | 97 | 72 | 102 |
| COc1cc(CCC(=O)CC(=O)c2ccccc2Cl)ccc1O [Compound 74, 1-(2-Chlorophenyl)-5-(4-hydroxy-3-methoxyphenyl)pentane-1,3-dione] | 15 | 6 | 54 | 75 | 1 | 16 | 1 | 41 | -4 | 53 | 10 | 89 | 60 | 98 | 99 | 101 |
| COC(=O)c1ccc(C(=O)CC(=O)CCc2ccc(O)c(OC)c2)cc1 [Compound 25, Methyl 4-(5-(4-hydroxy-3-methoxyphenyl)-3-oxopentanoyl)benzoate] | 18 | 21 | 48 | 59 | −6 | 0 | 1 | 43 | -3 | 20 | 12 | 35 | 54 | 94 | 58 | 102 |
